Laboratory results taken from patent publication US20240228489A1, “POSITIVE ALLOSTERIC MODULATORS OF THE MUSCARINIC ACETYLCHOLINE RECEPTOR M1” (Vanderbilt University, priority 2021, published 2024).

Legend:
[1] = target: T1, human mAChR M1 (Homo sapiens, UniProt P11229); assay: mAChR M1 cell-based functional assay (calcium mobilization), agonist mode: compound alone, Emax relative to acetylcholine maximum; settings: for Agonist Activity Human M1 EC50 / EC50: human mAChR M1
T1 sequence (P11229 1-460): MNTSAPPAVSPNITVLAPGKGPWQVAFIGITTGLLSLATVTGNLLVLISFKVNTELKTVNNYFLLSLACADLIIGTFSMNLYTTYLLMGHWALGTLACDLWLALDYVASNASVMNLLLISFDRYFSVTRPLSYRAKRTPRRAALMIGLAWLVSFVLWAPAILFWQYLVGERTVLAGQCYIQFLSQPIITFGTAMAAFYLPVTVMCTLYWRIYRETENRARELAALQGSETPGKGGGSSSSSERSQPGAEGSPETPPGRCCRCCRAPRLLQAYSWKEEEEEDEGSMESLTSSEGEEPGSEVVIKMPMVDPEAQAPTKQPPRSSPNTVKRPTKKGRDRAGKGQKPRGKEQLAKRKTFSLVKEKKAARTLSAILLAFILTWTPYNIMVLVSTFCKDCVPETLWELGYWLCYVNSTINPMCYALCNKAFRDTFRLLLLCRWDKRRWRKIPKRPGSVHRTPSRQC
Method in brief: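 Agonist activity is the concentration-dependent rise in intracellular calcium (Fluo-4, 1 Hz read) after compound addition, measured before any acetylcholine was added, in stable hM1 CHO-K1 cells. Curves were 11-point, 1:3 dilutions fitted by four-parameter logistic. Emax is given as a fraction of maximal acetylcholine response.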

[2] = target: T1, human mAChR M1; assay: mAChR M1 cell-based functional assay (calcium mobilization), PAM mode: increase in the EC20 acetylcholine response
Method in brief: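 PAM readout is the concentration-dependent rise in the EC20 acetylcholine calcium signal, fitted to a four-parameter logistic (EC50, Emax). Compounds were preincubated from 4 s before ACh at 144 s (EC20) and 230 s (EC80). hM1-expressing CHO-K1 cells loaded with Fluo-4, FDSS ratio read.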

[3] = relative to the maximum for acetylcholine

| SMILES | Agonist Activity Human M1 EC50 [1] | Emax [1, 3] [%] | EC50 [2] [nM] | Emax [2] [%] | EC50 [1] [nM] | Agonist Activity Emax [1, 3] [%] | PAM Activity Emax [2] [%] |
| --- | --- | --- | --- | --- | --- | --- | --- |
| [2H]C1([2H])c2ncccc2C(=O)N1Cc1ccc(-c2cccc3nn(C([2H])([2H])[2H])cc23)cc1C [Compound 46, 6-(2-methyl-4-(2-(methyl-d^3)-2H-indazol-4-yl)benzyl)-6,7-dihydro-5H-pyrrolo[3,4-b]pyridin-5-one-7,7-d2] | Inactive | 9 | 681 | 77 |  |  |  |
| [2H]C1([2H])c2ncccc2C(=O)N1Cc1ccc(-c2ccc(F)c3nn(C)cc23)cc1C [Compound 48, 6-(4-(7-fluoro-2-methyl-2H-indazol-4-yl)-2-methylbenzyl)-6,7-dihydro-5H-pyrrolo[3,4-b]pyridin-5-one-7,7-d2] |  | 9 | 488 | 85 | > 10000 |  |  |
| [2H]C1([2H])c2ncccc2C(=O)N1Cc1c(F)cc(-c2cccc3nn(C4COC4)cc23)cc1F [Compound 49, 6-(2,6-difluoro-4-(2-(oxetan-3-yl)-2H-indazol-4-yl)benzyl)-6,7-dihydro-5H-pyrrolo[3,4-b]pyridin-5-one-7,7-d2] | Inactive | 2 | 848 | 80 |  |  |  |
| [2H]C1([2H])c2ncccc2C(=O)N1Cc1c(F)cc(-c2ccc(OC)c3nn(C([2H])([2H])[2H])cc23)cc1F [Compound 51, 6-(2,6-difluoro-4-(7-methoxy-2-(methyl-d3)-2H-indazol-4-yl)benzyl)-6,7-dihydro-5H-pyrrolo[3,4-b]pyridin-5-one-7,7-d2] |  | 8 | 173 | 89 | > 10000 |  |  |
| [2H]C1([2H])c2ncccc2C(=O)N1Cc1ccc(-c2ccc(F)c3nn(C([2H])([2H])[2H])cc23)cc1F [Compound 54, 6-(2-fluoro-4-(7-fluoro-2-(methyl-d3)-2H-indazol-4-yl)benzyl)-6,7-dihydro-5H-pyrrolo[3,4-b]pyridin-5-one-7,7-d2] |  | 5 | 382 | 82 | > 10000 |  |  |
| [2H]C1([2H])c2ncccc2C(=O)N1Cc1ccc(-c2ccc(OC)c3nn(C([2H])([2H])[2H])cc23)cc1F [Compound 55, 6-(2-fluoro-4-(7-methoxy-2-(methyl-d3)-2H-indazol-4-yl)benzyl)-6,7-dihydro-5H-pyrrolo[3,4-b]pyridin-5-one-7,7-d2] | Inactive | 7 | 275 | 88 |  |  |  |
| [2H]C1([2H])c2ncccc2C(=O)N1Cc1ccc(-c2ccc(C)c3nn(C([2H])([2H])[2H])cc23)cc1C [Compound 58, 6-(2-methyl-4-(7-methyl-2-(methyl-d3)-2H-indazol-4-yl)benzyl)-6,7-dihydro-5H-pyrrolo[3,4-b]pyridin-5-one-7,7-d2] | Inactive | 4 | 614 | 83 |  |  |  |
| [2H]C1([2H])c2ncccc2C(=O)N1Cc1c(F)cc(-c2cccc3c2cnn3C(F)F)cc1F [Compound 60, 6-(4-(1-(difluoromethyl)-1H-indazol-4-yl)-2,6-difluorobenzyl)-6,7-dihydro-5H-pyrrolo[3,4-b]pyridin-5-one-7,7-d2] | Inactive |  | 693 |  |  | 4 | 34 |
| [2H]C1([2H])c2ncccc2C(=O)N1Cc1c(F)cc(-c2cccc3c2cnn3C(C)C)cc1F [Compound 64, 6-(2,6-difluoro-4-(1-isopropyl-1H-indazol-4-yl)benzyl)-6,7-dihydro-5H-pyrrolo[3,4-b]pyridin-5-one-7,7-d2] | Inactive | 2 | 1840 | 79 |  |  |  |
| [2H]C1([2H])c2ncccc2C(=O)N1Cc1c(F)cc(-c2cccc3c2cnn3CC)cc1F [Compound 65, 6-(4-(1-ethyl-1H-indazol-4-yl)-2,6-difluorobenzyl)-6,7-dihydro-5H-pyrrolo[3,4-b]pyridin-5-one-7,7-d2] |  | 2 | 1300 | 73 | > 10000 |  |  |

Further compounds by falling EC50 [2], results first:

| Agonist Activity Human M1 EC50 [1] | Emax [1, 3] [%] | EC50 [2] [nM] | Emax [2] [%] | EC50 [1] [nM] | Agonist Activity Emax [1, 3] [%] | PAM Activity Emax [2] [%] | SMILES |
| --- | --- | --- | --- | --- | --- | --- | --- |
| Inactive | 2 | 2170 | 74 |  |  |  | [2H]C1([2H])c2ncccc2C(=O)N1Cc1c(F)cc(-c2cccc3c2cnn3C2COC2)cc1F [Compound 66, 6-(2,6-difluoro-4-(1-(oxetan-3-yl)-1H-indazol-4-yl)benzyl)-6,7-dihydro-5H-pyrrolo[3,4-b]pyridin-5-one-7,7-d2] |
| Inactive | 8 | 1360 | 68 |  |  |  | [2H]C1([2H])c2ncc(Br)cc2C(=O)N1Cc1c(F)cc(-c2cccc3nn(C)cc23)cc1F [Compound 61, 3-Bromo-6-(2,6-difluoro-4-(2-methyl-2H-indazol-4-yl)benzyl)-6,7-dihydro-5H-pyrrolo[3,4-b]pyridin-5-one-7,7-d2] |
| Inactive | 5 | 900 | 76 |  |  |  | [2H]C1([2H])c2ncccc2C(=O)N1Cc1ccc(-c2ccc(F)c3nn(C([2H])([2H])[2H])cc23)cc1C [Compound 47, 6-(4-(7-fluoro-2-(methyl-d3)-2H-indazol-4-yl)-2-methylbenzyl)-6,7-dihydro-5H-pyrrolo[3,4-b]pyridin-5-one-7,7-d2] |
| Inactive | 2 | 411 | 73 |  |  |  | [2H]C1([2H])c2ncccc2C(=O)N1Cc1c(F)cc(-c2ccc(F)c3nn(C([2H])([2H])[2H])cc23)cc1F [Compound 45, 6-(2,6-difluoro-4-(7-fluoro-2-(methyl-d^3)-2H-indazol-4-yl)benzyl)-6,7-dihydro-5H-pyrrolo[3,4-b]pyridin-5-one-7,7-d2] |
| Inactive | 4 | 332 | 85 |  |  |  | [2H]C1([2H])c2ncccc2C(=O)N1Cc1c(F)cc(-c2cccc3nn(C(F)F)cc23)cc1F [Compound 50, 6-(4-(2-(difluoromethyl)-2H-indazol-4-yl)-2,6-difluorobenzyl)-6,7-dihydro-5H-pyrrolo[3,4-b]pyridin-5-one-7,7-d2] |
|  | 9 | 325 | 84 | > 10000 |  |  | [2H]C1([2H])c2ncccc2C(=O)N1Cc1ccc(-c2cccc3nn(C([2H])([2H])[2H])cc23)cc1F [Compound 53, 6-(2-fluoro-4-(2-(methyl-d3)-2H-indazol-4-yl)benzyl)-6,7-dihydro-5H-pyrrolo[3,4-b]pyridin-5-one-7,7-d2] |
| Inactive | 2 | 317 | 85 |  |  |  | [2H]C1([2H])c2ncccc2C(=O)N1Cc1c(F)cc(-c2ccc(C)c3nn(C([2H])([2H])[2H])cc23)cc1F [Compound 52, 6-(2,6-difluoro-4-(7-methyl-2-(methyl-d3)-2H-indazol-4-yl)benzyl)-6,7-dihydro-5H-pyrrolo[3,4-b]pyridin-5-one-7,7-d2] |
| Inactive | 5 | 317 | 87 |  |  |  | [2H]C1([2H])c2ncccc2C(=O)N1Cc1ccc(-c2ccc(C)c3nn(C([2H])([2H])[2H])cc23)cc1F [Compound 56, 6-(2-fluoro-4-(7-methyl-2-(methyl-d3)-2H-indazol-4-yl)benzyl)-6,7-dihydro-5H-pyrrolo[3,4-b]pyridin-5-one-7,7-d2] |
| Inactive | 4 | 288 | 87 |  |  |  | [2H]C1([2H])c2ncccc2C(=O)N1Cc1ccc(-c2ccc(OC)c3nn(C([2H])([2H])[2H])cc23)cc1C [Compound 57, 6-(4-(7-methoxy-2-(methyl-d3)-2H-indazol-4-yl)-2-methylbenzyl)-6,7-dihydro-5H-pyrrolo[3,4-b]pyridin-5-one-7,7-d2] |
| Inactive | 2 | 222 | 59 |  |  |  | [2H]C1([2H])c2ncccc2C(=O)N1Cc1c(F)cc(-c2cc(F)cc3nn(C)cc23)cc1F [Compound 59, 6-(2,6-difluoro-4-(6-fluoro-2-methyl-2H-indazol-4-yl)benzyl)-6,7-dihydro-5H-pyrrolo[3,4-b]pyridin-5-one-7,7-d2] |
| Inactive | 3 | 125 | 89 |  |  |  | [2H]C([2H])([2H])Oc1cnc2c(c1)C(=O)N(Cc1c(F)cc(-c3cccc4nn(C)cc34)cc1F)C2([2H])[2H] [Compound 63, 6-(2,6-Difluoro-4-(2-methyl-2H-indazol-4-yl)benzyl)-3-(methoxy-d3)-6,7-dihydro-5H-pyrrolo[3,4-b]pyridin-5-one-7,7-d2] |
|  | 57 | 108 | 67 | 4340 |  |  | [2H]C1([2H])c2ncc(O)cc2C(=O)N1Cc1c(F)cc(-c2cccc3nn(C)cc23)cc1F [Compound 62, 6-(2,6-Difluoro-4-(2-methyl-2H-indazol-4-yl)benzyl)-3-hydroxy-6,7-dihydro-5H-pyrrolo[3,4-b]pyridin-5-one-7,7-d2] |
